Laboratory results as given in patent US8906865B2, “Treatment of inflammation and/or endotoxic shock” (ISIS Innovation Limited, priority 2007, dated 2014).

System: C57B16/J mice, zymosan-induced peritonitis
Assay: Zymosan-induced peritonitis in mice
Format: in vivo, mouse
Design: Reduction of MCP-1 in peritoneal lavage fluid (FIG. 7F) / Reduction of KC in peritoneal lavage fluid (FIG. 7F) / Reduction of TNFα in peritoneal lavage fluid (FIG. 7F) / Reduction of IL-1β in peritoneal lavage fluid (FIG. 7F) / Reduction of IL-6 in peritoneal lavage fluid (FIG. 7F): concentration or dose not given beside the values
Conditions: for Protection in vivo as judged by monocyte and neutrophil levels (FIG. 7C-D): same dose and time as C15
Experimental: FIGS. 7A and 7B—C57B16/J mice were dosed i.p with PBS or chemerin15 (0.32 ng/kg) followed by injection with PBS or zymosan (10 μg, ˜2×10^6 particles per cavity) 1 h later. Peritoneal exudate cells were harvested by peritoneal lavage at multiple time points (FIGS. 7A and 7B; 5-6 mice/treatment) or after 4 h (FIGS. 7C-7E; 6-15 mice/group). FIGS. 7C-7E—total cell numbers in lavage fluid were quantified and cellular composition (neutrophils vs mononuclear phagocytes) determined using FACS analysis. Cells were blocked with 2.4G2 anti-FcγRII/III and stained with Ly-6G-PE and 7/4-FITC. Gates were constructed around two populations, the neutrophils (N; 7/4high, Ly-6Ghigh) and inflammatory monocytes (Mo; 7/4high, Ly-6Glow). FIG. 7E—representative FACS plots are shown for each treatment group at 4 h post-zymosan. FIG. 7F—peritoneal lavage fluid was assayed for TNFα and KC by ELISA and IL-6, IL-1β and MCP-1 by Luminex assay. C15; Chemerin15, Z; Zymosan. ***, P<0.001; **, P<0.01 ** relative to zymosan-treated animals (Student's t test). FIG. 7G—Mice (6-8/treatment) were dosed i.p with zymosan (10 μg) and with C15 (8 pg) or PBS either 1 h beforehand (C15 pre-treatment) or 2 h later (C15 post-treatment). Peritoneal lavage was carried out 4 h post-zymosan challenge. Reference in this figure to the peptide C15 refers to the peptide described previously as C15m;
More specifically, male C57B16/J mice (8-12 weeks) were injected intra-peritoneally with 0.5 ml PBS or 0.5 ml Chemerin15-mouse (0.32 ng/kg) followed by injection with 0.5 ml PBS or Zymosan (2×10^6 particles per cavity) an hour later. After 4 hours animals were sacrificed and peritoneal cavities washed with 5 ml PBS-3 mM EDTA. Total cell counts were obtained using Trypan blue exclusion test. For determination of cellular composition (Neutrophils vs mononuclear phagocytes), cells were blocked with 2.4G2 mAB for 5 mins and stained with PE-conjugated anti-mouse Ly-6G and FITC-conjugated anti-mouse 7/4 mAB for 10 mins. Cells were fixed in 1% formaldehyde prior to FACS analysis with CellQuest software. Gates were constructed around two populations, the neutrophils (N; 7/4^high, Ly-6G^high) and inflammatory monocytes (Mo; 7/4^high). C15 refers to Chemerin15-mouse. Z refers to Zymosan. p<0.01 **; p<0.05 * relative to Zymosan-treated.
Neutrophil (7/4^high, Ly-6G^high), monocyte (7/4^high, Ly-6G^low) and resident macrophage populations (7/4^low, Ly-6G^low) were determined according to Gordon S and Taylor P R Nat Rev Immunol. 2005; 5(12):953; Taylor P R et al. Eur J Immunol. August 2003; 33(8):2090-2097; and Taylor P R et al. Eur J Immunol. July 2005; 35(7):2163-2174.
The above result was further investigated. To determine the anti-inflammatory properties of the C15 peptide in vivo a time-course experiment was performed extending over 48 h. Neutrophil (7/4high, Ly-6Ghigh) and monocyte (7/4high, Ly-6Glow) populations in peritoneal lavage fluid were determined by FACS analysis according to published protocols (Taylor, P. R. et al., (2005). Eur J Immunol 35:2163-2174; Taylor, P. R., (2003). Eur J Immunol 33:2090-2097). Administration of zymosan into the mouse peritoneal cavity produced a time-dependent extravasation of inflammatory cells into the peritoneal cavity, which followed the typical profile of an acute inflammatory response (FIG. 7A-B, solid line). Neutrophils were the first leukocytes to infiltrate the cavity, detectable at 2 h post-zymosan with peak neutrophilia occurring at 4 h (1.95×10^6 cells). Monocyte influx into the inflamed peritoneal cavity was first detectable after 4 h (0.69×10^6 cells), peaking at 24 h post-zymosan injection (1.25×10^6 cells) and declining thereafter. Pre-treatment with C15 at a dose of 8 pg/mouse (≈0.32 ng/kg) 1 h prior to zymosan challenge brought the peak neutrophilia forward to 2 h with approximately 50% the magnitude of that of zymosan challenged mice (reduced from 1.25×10^6 to 0.62×10^6 cells; FIG. 7A, dotted line). […]

[1] = 8 pg/mouse 1 h before zymosan, 4 h post-zymosan
[2] = 0.32 ng/kg (8 pg/mouse) i.p. 1 h before zymosan, 4 h
[3] = C15 2 h post-zymosan, lavage 4 h post-zymosan

How did the “Protection in vivo as judged by monocyte and neutrophil levels (FIG. 7C-D)” value turn out when “AGEDPHGYALPGQAA (Mutant C15) [C15-M, control peptide, mutant C15 (F148A & F153A), reference compound]” was run?
The value was “not be protective”.

How did the “Suppression of neutrophil infiltration (FIG. 7A)” value (“Suppression … (FIG. 7A)” for short) (8 pg/mouse 1 h before zymosan, 2 h post-zymosan) turn out when “AGEDPHGYFLPGQFA (listed as Mus sp.) [C15]” was run?
The value was 50%.

And the “Suppression … (FIG. 7A)” value [1]?
The value was 66%.

What about the “Suppression of peritoneal monocytes (FIG. 7B)” value (from here on “Suppression … (FIG. 7B)”) [1] of the same sequence?
The value was 63%.

And the “Suppression … (FIG. 7B)” value (8 pg/mouse 1 h before zymosan, 8 h post-zymosan)?
Its value is 61%.

What about the “Suppression … (FIG. 7A)” value (8 pg/mouse 1 h before zymosan, 24 h post-zymosan) of the same sequence?
The value was 50%.

What about the “Suppression … (FIG. 7B)” value (8 pg/mouse 1 h before zymosan, 48 h post-zymosan) of the same sequence?
Its value is 64%.

And the “Peritoneal neutrophils at 2 h (peak neutrophilia under C15)” value (8 pg/mouse 1 h before zymosan, zymosan alone 1.25×10^6)?
The value was 0.62×10^6 cells.

What about the “Time of peak neutrophilia” value (8 pg/mouse 1 h before zymosan, zymosan alone 4 h) of the same sequence?
The value was 2 h.

What about the “Reduction of Zymosan-elicited monocyte recruitment (FIG. 6)” value [2] of the same sequence?
Its value is 42%.

And the “Reduction of Zymosan-elicited neutrophil recruitment (FIG. 6)” value [2]?
Its value is 52%.

And the “Levels of TNFα in zymosan-treated mice (FIG. 6)” value (0.32 ng/kg i.p. 1 h before zymosan)?
The value was “reduced”.

And the “Rate of monocyte influx into the inflamed cavity” value (2-4 h post-zymosan, zymosan alone 0.51×10^6/h)?
Its value is 180000 h⁻¹.

What about the “Reduction of IL-1β in peritoneal lavage fluid (FIG. 7F)” value (4 h post-zymosan) of the same sequence?
Its value is 67%.

What about the “Reduction of IL-6 in peritoneal lavage fluid (FIG. 7F)” value (4 h post-zymosan) of the same sequence?
Its value is 67%.

What about the “Reduction of KC in peritoneal lavage fluid (FIG. 7F)” value (4 h post-zymosan) of the same sequence?
Its value is 38%.

And the “Reduction of MCP-1 in peritoneal lavage fluid (FIG. 7F)” value (4 h post-zymosan)?
The value was 59%.

What about the “Reduction of TNFα in peritoneal lavage fluid (FIG. 7F)” value (4 h post-zymosan) of the same sequence?
Its value is 51%.

What about the “Decrease in monocyte levels (FIG. 7D)” value (C15 1 h prior to zymosan, 4 h) of the same sequence?
The value was 62%.

And the “Decrease in neutrophil numbers (FIG. 7C)” value (C15 1 h prior to zymosan, 4 h)?
Its value is 63%.

What about the “Monocyte levels (FIG. 7D)” value (C15 1 h prior to zymosan, 4 h, zymosan alone 0.69×10^6) of the same sequence?
Its value is 0.30×10^6.

And the “Neutrophil numbers (FIG. 7C)” value (C15 1 h prior to zymosan, 4 h, zymosan alone 1.9×10^6)?
Its value is 0.78×10^6.

And the “Decrease in monocyte recruitment, C15 post-treatment (FIG. 7G)” value [3]?
Its value is 42%.

What about the “Decrease in neutrophil recruitment, C15 post-treatment (FIG. 7G)” value [3] of the same sequence?
The value was 60%.

And the “Monocyte number, C15 post-treatment (FIG. 7G)” value (C15 2 h post-zymosan, lavage 4 h post-zymosan, zymosan alone 0.69×10^6)?
The value was 0.42×10^6 cells.

And the “Neutrophil number, C15 post-treatment (FIG. 7G)” value (C15 2 h post-zymosan, lavage 4 h post-zymosan, zymosan alone 1.9×10^6)?
The value was 0.83×10^6 cells.

And the “Dose with efficacy against sterile peritonitis in mice” value (mouse, in vivo)?
The value was 0.00032 µg/kg.

What about the “Dose giving maximal reduction in zymosan-elicited neutrophil and monocyte recruitment” value (single i.p. dose, 4 h post-zymosan) of the same sequence?
Its value is 8 pg/mouse.

For “GLFHDQAGPPAGYEF (Scrambled C15) [C15-S, control peptide, scrambled C15, reference compound]”, which “Protection in vivo as judged by monocyte and neutrophil levels (FIG. 7C-D)” value is on record?
Its value is “not be protective”.
